Results: patent publication US11590116B2 (THERAVANCE BIOPHARMA R&D IP, LLC, priority 2019, dated 2023)

Experiments:
[1] = tested on: TGF-β-stimulated SMAD3 phosphorylation in BEAS-2B cells; test: Cellular ALK5 potency assay, inhibition of TGF-β stimulated pSMAD3 formation in BEAS-2B cells; format: cell-based; settings: Homo sapiens; inhibition of TGF-β stimulated pSMAD3 formation, BEAS-2B cells; read-out: BEAS2B pIC50 (converted)
Outline: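 BEAS-2B human lung epithelial cells pre-treated 1 h at 37° C with compound in HBSS/25 mM HEPES/1% BSA, then stimulated 30 min with 10 ng/mL TGF-β (final). Lysates assayed for pSMAD3 by AlphaLISA; pIC50 from dose-dependent change versus stimulated untreated cells.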

[2] = molecular target: T1, recombinant human ALK5 (TGF-βR1) protein (Homo sapiens, UniProt P36897); test: Biochemical ALK5 (TGF-βR1) assay to measure pKi (LANCE Ultra ULight kinase assay); settings: apparent pKi from pIC50 by Cheng-Prusoff, read-out: ALK5 pKi (converted)
T1 construct: purchased Life Technologies PR9075A
T1 sequence (P36897 34-503): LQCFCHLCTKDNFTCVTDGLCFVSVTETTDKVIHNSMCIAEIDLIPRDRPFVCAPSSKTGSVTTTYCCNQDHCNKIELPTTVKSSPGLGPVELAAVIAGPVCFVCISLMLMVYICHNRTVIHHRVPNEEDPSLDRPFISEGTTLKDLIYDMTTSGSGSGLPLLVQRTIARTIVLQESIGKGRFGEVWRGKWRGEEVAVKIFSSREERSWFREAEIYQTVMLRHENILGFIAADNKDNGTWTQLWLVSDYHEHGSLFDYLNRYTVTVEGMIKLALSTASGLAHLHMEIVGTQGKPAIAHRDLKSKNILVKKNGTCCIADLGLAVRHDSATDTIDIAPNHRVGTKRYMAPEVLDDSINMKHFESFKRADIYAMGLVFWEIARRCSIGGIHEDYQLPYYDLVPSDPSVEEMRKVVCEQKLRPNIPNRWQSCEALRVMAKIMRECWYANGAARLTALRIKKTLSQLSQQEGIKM
Outline: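 After a 60 min room-temperature preincubation of ALK5 with compound, phosphorylation proceeds 60 min at 37 °C on ATP addition (125 μM as 5× stock). Detection: Eu-labelled phospho-Thr1342 Topo IIα antibody in EDTA buffer, pH 7.0; emission 665 nm.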

SMILES | IC50 [1] [nM] | Ki [2] [nM]
Cc1cccc(-c2n[nH]cc2-c2ccc3ncc(NCCN4CCOCC4)cc3n2)n1 [Compound 239, 6-[3-(6-methyl-2-pyridyl)-1H-pyrazol-4-yl]-N-(2-morpholinoethyl)-1,5-naphthyridin-3-amine] | 25.1 to 158 | 0.0398 to 0.316
COC(=O)CC1CN(c2cnc3ccc(-c4nc[nH]c4-c4cccc(C)n4)cc3c2)CCN1 (centres unmarked) [Compound 60, methyl 2-(4-(6-(5-(6-methylpyridin-2-yl)-1H-imidazol-4-yl)quinolin-3-yl)piperazin-2-yl)acetate] | 25.1 to 158 | 0.0398 to 0.316
Cc1cccc(-c2n[nH]cc2-c2ccc3ncc(-c4nn[nH]n4)cc3n2)n1 [Compound 177, 2-[3-(6-methyl-2-pyridyl)-1H-pyrazol-4-yl]-7-(2H-tetrazol-5-yl)-1,5-naphthyridine] | 1580 to 10000 | 0.0398 to 0.316
Cc1cccc(-c2n[nH]cc2-c2ccc3ncc(NCCN4CCCC4(C)C)cc3n2)n1 [Compound 31, N-[2-(2,2-dimethylpyrrolidin-1-yl)ethyl]-6-[3-(6-methyl-2-pyridyl)-1H-pyrazol-4-yl]-1,5-naphthyridin-3-amine] | 25.1 to 158 | < 0.0316
Cc1cccc(-c2[nH]cnc2-c2ccc3ncc(C(=O)O[C@H]4CCN(C)C4)cc3c2)n1 [Compound 724, [(3S)-1-methylpyrrolidin-3-yl] 6-[5-(6-methyl-2-pyridyl)-1H-imidazol-4-yl]quinoline-3-carboxylate] | 25.1 to 158 | 0.398 to 3.16
Cc1cccc(-c2[nH]cnc2-c2ccc3ncc(-c4ccc(C(=O)OCCNC5CNC5)cn4)cc3c2)n1 [Compound 1192, 2-(azetidin-3-ylamino)ethyl 6-[6-[5-(6-methyl-2-pyridyl)-1H-imidazol-4-yl]-3-quinolyl]pyridine-3-carboxylate] | 200 to 1260 | 0.0398 to 0.316
Cc1cccc(-c2[nH]cnc2-c2ccc3ncc(-c4csc(C(=O)OCCN5CC[C@@H](N)C5)c4)cc3c2)n1 [Compound 1220, 2-[(3R)-3-aminopyrrolidin-1-yl]ethyl 4-[6-[5-(6-methyl-2-pyridyl)-1H-imidazol-4-yl]-3-quinolyl]thiophene-2-carboxylate] | 25.1 to 158 | 0.0398 to 0.316
Cc1cccc(-c2n[nH]cc2-c2ccc3ncc(N)cc3n2)n1 [Compound 300, 6-[3-(6-methyl-2-pyridyl)-1H-pyrazol-4-yl]-1,5-naphthyridin-3-amine] | < 20 | < 0.0316
Cc1cccc(-c2[nH]cnc2-c2ccc3ncc(C(=O)O[C@@H]4CCN(C)C4)cc3c2)n1 [Compound 758, [(3R)-1-methylpyrrolidin-3-yl] 6-[5-(6-methyl-2-pyridyl)-1H-imidazol-4-yl]quinoline-3-carboxylate] | 25.1 to 158 | 0.398 to 3.16
COC(=O)CNc1cnc2ccc(-c3nc[nH]c3-c3cccc(C)n3)cc2c1 [Compound 1229, methyl 2-[[6-[5-(6-methyl-2-pyridyl)-1H-imidazol-4-yl]-3-quinolyl]amino]acetate] | 25.1 to 158 | 0.0398 to 0.316
Cc1cccc(-c2n[nH]cc2-c2ccc3nccc(C4COCC(C)N4)c3n2)n1 (centres unmarked) [Compound 863, 3-methyl-5-[6-[3-(6-methyl-2-pyridyl)-1H-pyrazol-4-yl]-1,5-naphthyridin-4-yl]morpholine] | 200 to 1260 | 3.98 to 31.6
Cc1cccc(-c2[nH]cnc2-c2ccc3ncc(-c4ccc(C(=O)OC[C@H]5CCCCN5)cn4)cc3c2)n1 [Compound 1244, [(2R)-2-piperidyl]methyl 6-[6-[5-(6-methyl-2-pyridyl)-1H-imidazol-4-yl]-3-quinolyl]pyridine-3-carboxylate] | 25.1 to 158 | 0.0398 to 0.316
CNCc1cncc(-c2cnc3ccc(-c4nc[nH]c4-c4cccc(C)n4)cc3c2)c1 [Compound 342, N-methyl-1-[5-[6-[5-(6-methyl-2-pyridyl)-1H-imidazol-4-yl]-3-quinolyl]-3-pyridyl]methanamine] | 25.1 to 158 | 0.0398 to 0.316
Cc1cccc(-c2n[nH]cc2-c2ccc3ncc(-c4nc5c([nH]4)CCNCC5)cc3n2)n1 [Compound 642, 2-[6-[3-(6-methyl-2-pyridyl)-1H-pyrazol-4-yl]-1,5-naphthyridin-3-yl]-1,4,5,6,7,8-hexahydroimidazo[4,5-d]azepine] | 200 to 1260 | 0.0398 to 0.316
Cc1cccc(-c2n[nH]cc2-c2ccc3ncc(-c4cnn(CCN5CCNCC5)c4)cc3n2)n1 [Compound 178, 2-[3-(6-methyl-2-pyridyl)-1H-pyrazol-4-yl]-7-[1-(2-piperazin-1-ylethyl)pyrazol-4-yl]-1,5-naphthyridine] | 25.1 to 158 | < 0.0316
CNCCn1cc(-c2cnc3ccc(-c4c(-c5cccc(C)n5)nn5c4NCC5)cc3c2)cn1 [Compound 632, N-methyl-2-[4-[6-[6-(6-methyl-2-pyridyl)-2,3-dihydro-1H-imidazo[1,2-b]pyrazol-7-yl]-3-quinolyl]pyrazol-1-yl]ethanamine] | 25.1 to 158 | 0.0398 to 0.316
Cc1nc(-c2nc3ccccn3c2-c2ccc3ncc(NCCN4CCN(C(C)C)CC4)cc3c2)ccc1F [Compound 620, 6-[2-(5-fluoro-6-methyl-2-pyridyl)imidazo[1,2-a]pyridin-3-yl]-N-[2-(4-isopropylpiperazin-1-yl)ethyl]quinolin-3-amine] | 25.1 to 158 | 0.0398 to 0.316
Cc1nc(-c2n[nH]cc2-c2ccc3ncc(-c4cnn5c4NCC5)cc3n2)ccc1F [Compound 534, 7-(2,3-dihydro-1H-imidazo[1,2-b]pyrazol-7-yl)-2-[3-(5-fluoro-6-methyl-2-pyridyl)-1H-pyrazol-4-yl]-1,5-naphthyridine] | < 20 | < 0.0316
Cc1cccc(-c2[nH]cnc2-c2ccc3ncc(C4=CCC(C(=O)OC5CCNCC5)CC4)cc3c2)n1 (centres unmarked) [Compound 444, 4-piperidyl 4-[6-[5-(6-methyl-2-pyridyl)-1H-imidazol-4-yl]-3-quinolyl]cyclohex-3-ene-1-carboxylate] | 25.1 to 158 | 0.0398 to 0.316
Cc1cccc(-c2n[nH]cc2-c2ccc3ncc(N4CCN[C@H](C)C4)cc3n2)n1 [Compound 249, 7-[(3R)-3-methylpiperazin-1-yl]-2-[3-(6-methyl-2-pyridyl)-1H-pyrazol-4-yl]-1,5-naphthyridine] | 25.1 to 158 | 0.0398 to 0.316
Cc1cccc(-c2[nH]cnc2-c2ccc3ncc(-c4csc(C(=O)OC[C@H]5CCCNC5)c4)cc3c2)n1 [Compound 1253, [(3S)-3-piperidyl]methyl 4-[6-[5-(6-methyl-2-pyridyl)-1H-imidazol-4-yl]-3-quinolyl]thiophene-2-carboxylate] | 25.1 to 158 | < 0.0316
CNCCn1cc(-c2cnc3ccc(-c4nc[nH]c4-c4cccc(C)n4)nc3c2)cn1 [Compound 408, N-methyl-2-[4-[6-[5-(6-methyl-2-pyridyl)-1H-imidazol-4-yl]-1,5-naphthyridin-3-yl]pyrazol-1-yl]ethanamine] | 25.1 to 158 | 0.0398 to 0.316
Cc1cccc(-c2[nH]cnc2-c2ccc3ncc(-c4csc(C(=O)OC[C@@H]5CCC[C@H](N)C5)c4)cc3c2)n1 (racemic) [Compound 1197, [rac-(1R,3S)-3-aminocyclohexyl]methyl 4-[6-[5-(6-methyl-2-pyridyl)-1H-imidazol-4-yl]-3-quinolyl]thiophene-2-carboxylate] | 25.1 to 158 | 0.0398 to 0.316
Cc1nc(-c2n[nH]cc2-c2ccc3ncc(-c4cnn(C5CCCNC5)c4)cc3c2)ccc1F (centres unmarked) [Compound 458, 6-[3-(5-fluoro-6-methyl-2-pyridyl)-1H-pyrazol-4-yl]-3-[1-(3-piperidyl)pyrazol-4-yl]quinoline] | < 20 | < 0.0316
Cc1cccc(-c2[nH]cnc2-c2ccc3ncc(-c4cn[nH]c4)cc3c2)n1 [Compound 430, 6-[5-(6-methyl-2-pyridyl)-1H-imidazol-4-yl]-3-(1H-pyrazol-4-yl)quinoline] | < 20 | < 0.0316
CNc1cnc2ccc(-c3c[nH]nc3-c3cccc(C)n3)nc2c1 [Compound 106, N-methyl-6-[3-(6-methyl-2-pyridyl)-1H-pyrazol-4-yl]-1,5-naphthyridin-3-amine] | < 20 | 0.0398 to 0.316
Cc1cccc(-c2[nH]cnc2-c2ccc3ncc(-c4ccnc(C(=O)OCC5CNC5)c4)cc3c2)n1 [Compound 1086, azetidin-3-ylmethyl 4-[6-[5-(6-methyl-2-pyridyl)-1H-imidazol-4-yl]-3-quinolyl]pyridine-2-carboxylate] | 200 to 1260 | 0.0398 to 0.316
Cc1cccc(-c2[nH]cnc2-c2ccc3ncc(N(C)CC4CNC4)cc3c2)n1 [Compound 6, N-(azetidin-3-ylmethyl)-N-methyl-6-[5-(6-methyl-2-pyridyl)-1H-imidazol-4-yl]quinolin-3-amine] | 25.1 to 158 | 0.0398 to 0.316
